Here are results for three compounds from paper PMC5512454 (Bioorganic & medicinal chemistry, 2017).

The target of data set [1] is human D3 receptor (Homo sapiens, UniProt P35462). Briefly: Radioligand displacement assay, hD3.
The subject of data set [2] is D3 receptors in rat brain. The data set can be described thus: Ex-vivo autoradiography of coronal rat brain sections. The format is in vivo. Conditions: co-injection of BP897; region of interest-to-background ratios; 60 min p.i.
For data set [3], the system named is dopamine D3 receptors in vivo. The data set can be described thus: PET imaging study in rat.
The target of data set [4] is D3 receptors in rat brain slices (Rattus norvegicus, UniProt P19020). Briefly: In-vitro autoradiography of coronal rat brain slices. It is filed as binding. The following applies: proven by displacement with BP897 (1 μM).
Chain of D3 receptors in rat brain slices (P19020 whole entry): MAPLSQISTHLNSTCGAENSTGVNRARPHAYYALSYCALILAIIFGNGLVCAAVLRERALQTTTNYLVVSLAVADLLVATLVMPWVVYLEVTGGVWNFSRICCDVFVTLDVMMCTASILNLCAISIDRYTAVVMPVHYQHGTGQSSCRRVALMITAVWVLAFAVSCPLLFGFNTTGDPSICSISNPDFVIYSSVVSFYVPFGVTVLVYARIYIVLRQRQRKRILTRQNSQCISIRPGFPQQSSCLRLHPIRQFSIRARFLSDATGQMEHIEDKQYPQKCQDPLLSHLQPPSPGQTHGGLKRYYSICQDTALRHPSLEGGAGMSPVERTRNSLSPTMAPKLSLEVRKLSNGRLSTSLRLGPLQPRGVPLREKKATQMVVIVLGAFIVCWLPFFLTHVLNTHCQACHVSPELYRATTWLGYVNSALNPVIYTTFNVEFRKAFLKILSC
The subject of data set [5] is food-maintained responding. Briefly: Food-maintained behavior in rhesus monkeys. It is filed as in vivo.
Data set [6] relates to cocaine-maintained responding. Briefly: Cocaine self-administration in rhesus monkeys. The format is in vivo.

Chain of human D3 receptor (P35462 whole entry): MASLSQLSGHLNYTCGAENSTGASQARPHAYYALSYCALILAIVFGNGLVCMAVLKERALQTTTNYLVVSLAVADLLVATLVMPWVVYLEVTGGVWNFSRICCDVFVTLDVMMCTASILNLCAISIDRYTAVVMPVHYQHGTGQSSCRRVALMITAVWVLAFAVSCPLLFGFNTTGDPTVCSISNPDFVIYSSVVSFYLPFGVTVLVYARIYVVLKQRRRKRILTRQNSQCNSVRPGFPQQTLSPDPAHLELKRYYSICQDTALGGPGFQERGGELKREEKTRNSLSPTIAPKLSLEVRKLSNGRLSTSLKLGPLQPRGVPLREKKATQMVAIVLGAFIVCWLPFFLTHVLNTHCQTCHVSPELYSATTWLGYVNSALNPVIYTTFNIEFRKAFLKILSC

Turning to `CC(C)(C)c1nc(N2CCN(CCCCNC(=O)c3cc4ccccc4s3)CC2)cc(C(F)(F)F)n1` [Compound 9, N-(4-(4-(2-tert-butyl-6-(trifluoromethyl)pyrimidin-4-yl)piperazin-1-yl)butyl)benzo[b]thiophene-2-carboxamide], in data set [1], the “D3 selectivity over all biogenic amine receptors investigated” value is reported as 1000–20000 fold.
`O=C(NCCCCN1CCN(c2ccccc2OCC[18F])CC1)c1cc2ccccn2n1` [[^18F]2, N-[4-[4-(2-[^18F]fluoroethoxyphenyl)-piperazin-1-yl]-butyl]-pyrazolo-[1,5-a]pyridin-2-carboxamide]: the “Radioligand displaced by BP897, third ventricle (3V)” value in data set [2] is given as 5–14%. In data set [3], the “Blood-brain-barrier (BBB) penetration” value was “only low blood-brain-barrier (BBB) penetration”, the “Brain uptake of the radioligand in CNS structures” value is on record as “marginal brain uptake” and the “Reduction of uptake in the pituitary gland by pretreatment with BP897” value is on record as 25%. Also, the “Mean whole pituitary gland uptake of the radioligand” value in data set [3] (40 min p.i.) is 0.394 ± 0.016 % ID/g. In data set [4], the “Binding in rat brain slices, in-vitro autoradiography” value is “D3-specific binding”.
Take `COc1ccccc1N1CCN(CCCCNC(=O)c2cc3ccccn3n2)CC1` [Compound 1]: the “Food-maintained responding following the i.v. self-administration component (food 2)” value in data set [5] (food 2) is “did not appreciably alter”. Besides, the “Reduction of food-maintained behavior during food 1 session” value in data set [5] (pretreatment 0.32 mg/kg, food 1 (before cocaine component)) is given as “approximately 30%”. Moreover, the “Food 1 and 2 responding at low and intermediate doses” value in data set [5] (pretreatment 0.1 and 0.18 mg/kg) was “did not markedly decrease”. In data set [5] (suggested from food 2 components in sessions of i.v. saline availability), the “Duration of action of behaviorally active doses” value is given as < 2 h. The “Cocaine-maintained responding, % of control values” in data set [6] (pretreatment 0.32 mg/kg, 0.03 mg/kg per injection i.v. cocaine, group average) is recorded as “approximately 20%”. Besides, the “Effect of various pretreatment doses on cocaine-maintained responding” value in data set [6] (various doses (Figure S2)) is on record as “dose-related decreases”.
